Measured values: US11787825B2 (priority 2021, dated 2023)
Converted amounts (≈) assume the structure as drawn. Where two headings read alike, the source gives them in different places.

What was measured:
physchem = details: 25 °C, thermodynamic from solid
[1] = 0.1N HCL, 1.0% DMSO, 24-hour incubation at ambient temperature, maximum theoretical compound concentration 100 μM
[2] = 1×PBS buffer (pH 7.4), 1.0% DMSO, 24-hour incubation at ambient temperature, maximum theoretical compound concentration 100 μM
[3] = fed state simulated intestinal fluid (FeSSIF), fessif
[4] = fasted state simulated intestinal fluid (FaSSIF), fassif

Row | SMILES | pH 2 solubility [1] [μM] | pH 7 solubility [2] [μM] | solubility (physchem; [3]) [µg/mL] | pH 7 solubility | pH 2 solubility (pH 2) | solubility (physchem; [4]) [µg/mL] | solubility (physchem; fassif) [µg/mL] | pH 7 solubility (pH 7.4) | solubility (physchem; fessif) [µg/mL]
1 | CC(C)(C#Cc1ccc(-c2ccc(Cl)c3c(N(C(=O)[C@@H](N)CCCNC(=N)N)S(C)(=O)=O)nn(CC(F)(F)F)c23)c([C@H](Cc2cc(F)cc(F)c2)NC(=O)Cn2nc(C(F)(F)F)c3c2C(F)(F)[C@@H]2C[C@H]32)n1)S(C)(=O)=O [Compound 22, 2-amino-N-(4-chloro-7-(2-((S)-1-(2-((3bS,4aR)-5,5-difluoro-3-(trifluoromethyl)-3b,4,4a,5-tetrahydro-1H-cyclopropa[3,4]cyclopenta[1,2-c]pyrazolyl)acetamido)-2-(3,5-difluorophenyl)ethyl)-6-(3-methyl-3-(methylsulfonyl)but-1-ynyl)pyridin-3-yl)-1-(2,2,2-trifluoroethyl)-1H-indazol-3-yl)-5-guanidino-N-(methylsulfonyl)pentanamide] | 100 | 27 | 0.2 (≈ 0.178 µM) | – | – | – | – | – | –
2 | CC(C)(C#Cc1ccc(-c2ccc(Cl)c3c(N(C(=O)/C=C/C(=O)O)S(C)(=O)=O)nn(CC(F)(F)F)c23)c([C@H](Cc2cc(F)cc(F)c2)NC(=O)Cn2nc(C(F)(F)F)c3c2C(F)(F)[C@@H]2C[C@H]32)n1)S(C)(=O)=O [Compound 1, (E)-4-(N-(4-chloro-7-(2-((S)-1-(2-((3bS,4aR)-5,5-difluoro-3-(trifluoromethyl)-3b,4,4a,5-tetrahydro-1H-cyclopropa[3,4]cyclopenta[1,2-c]pyrazol-1-yl)acetamido)-2-(3,5-difluorophenyl)ethyl)-6-(3-methyl-3-(methylsulfonyl)but-1-yn-1-yl)pyridin-3-yl)-1-(2,2,2-trifluoroethyl)-1H-indazol-3-yl)methylsulfonamido)-4-oxobut-2-enoic acid] | – | – | 45 (≈ 42.2 µM) | 1/86 μM | 1/86 μM | 321 (≈ 301 µM) | – | – | –
3 | C[C@H](N)C(=O)N(c1nn(CC(F)(F)F)c2c(-c3ccc(C#CC(C)(C)S(C)(=O)=O)nc3[C@H](Cc3cc(F)cc(F)c3)NC(=O)Cn3nc(C(F)(F)F)c4c3C(F)(F)[C@@H]3C[C@H]43)ccc(Cl)c12)S(C)(=O)=O [Compound 18, (S)-2-amino-N-(4-chloro-7-(2-((S)-1-(2-((3bS,4aR)-5,5-difluoro-3-(trifluoromethyl)-3b,4,4a,5-tetrahydro-1H-cyclopropa[3,4]cyclopenta[1,2-c]pyrazol-1-yl)acetamido)-2-(3,5-difluorophenyl)ethyl)-6-(3-methyl-3-(methylsulfonyl)but-1-yn-1-yl)pyridin-3-yl)-1-(2,2,2-trifluoroethyl)-1H-indazol-3-yl)-N-(methylsulfonyl)propenamide] | 60 | 1 | 0.4 (≈ 0.385 µM) | – | – | 0.5 (≈ 0.481 µM) | – | – | –
4 | CC(C)(C#Cc1ccc(-c2ccc(Cl)c3c(N(C(=O)CC4(CN(CC(=O)O)C(=O)OCOP(=O)(O)O)CC4)S(C)(=O)=O)nn(CC(F)(F)F)c23)c([C@H](Cc2cc(F)cc(F)c2)NC(=O)Cn2nc(C(F)(F)F)c3c2C(F)(F)[C@@H]2C[C@H]32)n1)S(C)(=O)=O [Compound 39] | 1 | 87 | 3870 (≈ 3000 µM) | – | – | 1190 (≈ 921 µM) | – | – | –
5 | C[C@H](NC(=O)OCOP(=O)(O)O)C(=O)N(c1nn(CC(F)(F)F)c2c(-c3ccc(C#CC(C)(C)S(C)(=O)=O)nc3[C@H](Cc3cc(F)cc(F)c3)NC(=O)Cn3nc(C(F)(F)F)c4c3C(F)(F)[C@@H]3C[C@H]43)ccc(Cl)c12)S(C)(=O)=O [Compound 36, (phosphonooxy)methyl ((S)-1-(N-(4-chloro-7-(2-((S)-1-(2-((3bS,4aR)-5,5-difluoro-3-(trifluoromethyl)-3b,4,4a,5-tetrahydrocyclopropa[3,4]cyclopenta[1,2-c]pyrazol-1-yl)acetamido)-2-(3,5-difluorophenyl)ethyl)-6-(3-methyl-3-(methylsulfonyl)but-1-yn-1-yl)pyridin-3-yl)-1-(2,2,2-trifluoroethyl)-1H-indazolyl)methylsulfonamido)-1-oxopropan-2-yl)carbamate] | 3 | 100 | – | – | – | – | 661 (≈ 554 µM) | – | –
6 | CC(C)(C#Cc1ccc(-c2ccc(Cl)c3c(N(C(=O)Cc4ccccc4OP(=O)(O)O)S(C)(=O)=O)nn(CC(F)(F)F)c23)c([C@H](Cc2cc(F)cc(F)c2)NC(=O)Cn2nc(C(F)(F)F)c3c2C(F)(F)[C@@H]2C[C@H]32)n1)S(C)(=O)=O [Compound 45, 2-(2-(N-(4-chloro-7-(2-((S)-1-(2-((3bS,4aR)-5,5-difluoro-3-(trifluoromethyl)-3b,4,4a,5-tetrahydro-1H-cyclopropa[3,4]cyclopenta[1,2-c]pyrazol-1-yl)acetamido)-2-(3,5-difluorophenyl)ethyl)-6-(3-methyl-3-(methylsulfonyl)but-1-yn-1-yl)pyridin-3-yl)-1-(2,2,2-trifluoroethyl)-1H-indazol-3-yl)methylsulfonamido)-2-oxoethyl)phenyl dihydrogen phosphate] | – | – | – | – | 1/1 μM | – | 456 | 1/1 μM | 129
7 | CC(C)(C#Cc1ccc(-c2ccc(Cl)c3c(N(C(=O)Cc4ccc(OP(=O)(O)O)cc4)S(C)(=O)=O)nn(CC(F)(F)F)c23)c([C@H](Cc2cc(F)cc(F)c2)NC(=O)Cn2nc(C(F)(F)F)c3c2C(F)(F)[C@@H]2C[C@H]32)n1)S(C)(=O)=O [Compound 51, 4-(2-(N-(4-chloro-7-(2-((S)-1-(2-((3bS,4aR)-5,5-difluoro (trifluoromethyl)-3b,4,4a,5-tetrahydro-1H-cyclopropa[3,4]cyclopenta[1,2-c]pyrazolyl)acetamido)-2-(3,5-difluorophenyl)ethyl)-6-(3-methyl-3-(methylsulfonyl)but-1-ynyl)pyridin-3-yl)-1-(2,2,2-trifluoroethyl)-1H-indazol-3-yl)methylsulfonamido)oxoethyl)phenyl dihydrogen phosphate] | – | – | – | – | 1/100 μM | – | 1750 | 1/100 μM | 1450
8 | CN(C)CCCC[C@@H](C(=O)N(c1nn(CC(F)(F)F)c2c(-c3ccc(C#CC(C)(C)S(C)(=O)=O)nc3[C@H](Cc3cc(F)cc(F)c3)NC(=O)Cn3nc(C(F)(F)F)c4c3C(F)(F)[C@@H]3C[C@H]43)ccc(Cl)c12)S(C)(=O)=O)N(C)C [Compound 6, (S)—N-(4-chloro-7-(2-((S)-1-(2-((3bS,4aR)-5,5-difluoro-3-(trifluoromethyl)-3b,4,4a,5-tetrahydro-1H-cyclopropa[3,4]cyclopenta[1,2-c]pyrazol-1-yl)acetamido)-2-(3,5-difluorophenyl)ethyl)-6-(3-methyl-3-(methylsulfonyl)but-1-yn-1-yl)pyridin-3-yl)-1-(2,2,2-trifluoroethyl)-1H-indazol-3-yl)-2,6-bis(dimethylamino)-N-(methylsulfonyl)hexanamide] | 100 | 9 | 1 (≈ 0.868 µM) | – | – | 21 (≈ 18.2 µM) | – | – | –
9 | Cc1cc(CC(=O)NCP(=O)(O)O)c(C(C)(C)CC(=O)N(c2nn(CC(F)(F)F)c3c(-c4ccc(C#CC(C)(C)S(C)(=O)=O)nc4[C@H](Cc4cc(F)cc(F)c4)NC(=O)Cn4nc(C(F)(F)F)c5c4C(F)(F)[C@@H]4C[C@H]54)ccc(Cl)c23)S(C)(=O)=O)c(OP(=O)(O)O)c1 [Compound 61, ((2-(2-(4-(N-(4-chloro-7-(2-((S)-1-(2-((3bS,4aR)-5,5-difluoro-3-(trifluoromethyl)-3b,4,4a,5-tetrahydro-1H-cyclopropa[3,4]cyclopenta[1,2-c]pyrazol-1-yl)acetamido)-2-(3,5-difluorophenyl)ethyl)-6-(3-methyl-3-(methylsulfonyl)but-1-yn-1-yl)pyridin-3-yl)-1-(2,2,2-trifluoroethyl)-1H-indazol-3-yl)methylsulfonamido)-2-methyl-4-oxobutan-2-yl)-5-methyl-3-(phosphonooxy)phenyl)acetamido)methyl)phosphonic acid] | – | – | – | – | 2/70 μM | – | > 10000 | 2/70 μM | –
10 | CC(C)(C#Cc1ccc(-c2ccc(Cl)c3c(N(C(=O)CCC(CC(=O)O)NC(=O)OCOP(=O)(O)O)S(C)(=O)=O)nn(CC(F)(F)F)c23)c([C@H](Cc2cc(F)cc(F)c2)NC(=O)Cn2nc(C(F)(F)F)c3c2C(F)(F)[C@@H]2C[C@H]32)n1)S(C)(=O)=O (stereo in doubt) [Compound 34, (R)-6-(N-(4-chloro-7-(2-((S)-1-(2-((3bS,4aR)-5,5-difluoro-3-(trifluoromethyl)-3b,4,4a,5-tetrahydro-1H-cyclopropa[3,4]cyclopenta[1,2-c]pyrazol-1-yl)acetamido)-2-(3,5-difluorophenyl)ethyl)-6-(3-methyl-3-(methylsulfonyl)but-1-yn-1-yl)pyridin-3-yl)-1-(2,2,2-trifluoroethyl)-1H-indazol-3-yl)methylsulfonamido)-6-oxo-3-((((phosphonooxy)methoxy)carbonyl)amino)hexanoic acid] | 3 | 75 | 454 (≈ 359 µM) | – | – | > 2840 | – | – | –
